# Results: patent EP4782431A1 (Suzhou Merna Therapeutics Co. Ltd, priority 2023, dated 2025)
# How the values were obtained:
# Type in all cases: physicochemical
# [1] = stability of crystal forms (XRPD, HPLC, color); settings: 25°C/92%RH open, 1 week
# [2] = competitive suspension tests of crystal forms (XRPD)
# Description: (§1) A 2θ scanning angle of the sample was 3°-40°, a scanning step size was 0.02°, and a scanning time per step was 0.12 s/step. An optical tube voltage and a current were 40 kV and 40 mA, respectively. During sample preparation, an appropriate amount of the sample was placed on a sample tray and flattened with a tool such as a glass slide to ensure a smooth and even surface.
# Resulting suspensions were suspended at 5°C, 25°C, and 50°C for 3 days, respectively. The resulting suspensions were centrifuged, and solid portions were detected by XRPD.
# [3] = hygroscopicity by dynamic vapor sorption (DVS); settings: for 1st adsorption Percentage of weight change / 1st desorption Percentage of weight change / 2nd adsorption Percentage of weight change / 2nd desorption Percentage of weight change: 40-0-95-0-40%RH, 240 min per step
# Description: ProUmid SPSx-1µ Advance was used for analysis of a sample. The sample to be tested was approximately in an amount of 5-50 mg. A temperature in a test chamber was controlled at 25±1°C, a relative humidity cycle was […], a step size was 10%, an equilibrium time was 240 minutes per step, and mass data was recorded every 20 seconds.
# A DVS cycle was 40-0-95-0-40%RH. XRPD detection was performed on samples after the DVS testing to determine whether crystal form transformation occurred.
# [4] = stability of crystal forms (XRPD, HPLC, color)
# Description: as §1
# An Agilent 1260 infinityII binary pump was used for solubility and stability testing.
# The stability of samples under these conditions was detected by XRPD and HPLC, and whether the samples had color changes was observed.
# (§2) A certain amount of the crystal form C of the compound of formula (I) was weighed and placed in an open container at 25°C/92.5%RH for 1 week. A certain amount of the crystal form C of the compound of formula (I) was weighed and placed in a closed container at 60°C for 1 week. The stability of samples under these conditions was detected by XRPD and HPLC, and whether the samples had color changes was observed. Table 16 Stability test results of the crystal form C of the compound of formula (I)
# as §2, with “form D” for “form C”, “Table 17” for “Table 16”
# as §2, with “form E” for “form C”, “Table 18” for “Table 16”
smiles,measurement,setting,value
"NC(=O)[C@H]1CCCc2c1[nH]c1ccc(Cl)cc21 [Crystal form F, (S)-6-chloro-2,3,4,9-tetrahydro-1H-carbazole-carboxamide]",Color,[1],No change
same,Degradation (%),[1],None
same,Purity (%),[1],99.8%
same,crystal form after competitive suspension slurrying,"[2]; isopropanol, isopropyl acetate, and acetonitrile, 5°C, 25°C, 50°C, 3 days",converted into the crystal form F
same,relative stability of crystal forms,[2]; temperature range of 5°C to 50°C,more stable than the crystal forms B and G
same,Hygroscopicity Conclusion,"[3]; DVS at 25°C, Table 13",No hygroscopicity
same,1st adsorption Percentage of weight change,[3]; Relative humidity 0% at 25°C,0.1%
same,1st desorption Percentage of weight change,[3]; Relative humidity 0% at 25°C,0.1%
same,2nd adsorption Percentage of weight change,[3]; Relative humidity 0% at 25°C,0.3%
same,2nd desorption Percentage of weight change,[3]; Relative humidity 0% at 25°C,0.3%
same,1st adsorption Percentage of weight change,[3]; Relative humidity 10% at 25°C,0.2%
same,1st desorption Percentage of weight change,[3]; Relative humidity 10% at 25°C,0.3%
same,2nd adsorption Percentage of weight change,[3]; Relative humidity 10% at 25°C,0.2%
same,2nd desorption Percentage of weight change,[3]; Relative humidity 10% at 25°C,0.3%
same,1st adsorption Percentage of weight change,[3]; Relative humidity 20% at 25°C,0.2%
same,1st desorption Percentage of weight change,[3]; Relative humidity 20% at 25°C,0.1%
same,2nd adsorption Percentage of weight change,[3]; Relative humidity 20% at 25°C,0.2%
same,2nd desorption Percentage of weight change,[3]; Relative humidity 20% at 25°C,0.4%
same,1st adsorption Percentage of weight change,[3]; Relative humidity 30% at 25°C,0.1%
same,1st desorption Percentage of weight change,[3]; Relative humidity 30% at 25°C,0.1%
same,2nd adsorption Percentage of weight change,[3]; Relative humidity 30% at 25°C,0.0%
same,2nd desorption Percentage of weight change,[3]; Relative humidity 30% at 25°C,0.1%
same,1st adsorption Percentage of weight change,[3]; Relative humidity 40% at 25°C,0.2%
same,1st desorption Percentage of weight change,[3]; Relative humidity 40% at 25°C,0.2%
same,2nd adsorption Percentage of weight change,[3]; Relative humidity 40% at 25°C,0.0%
same,2nd desorption Percentage of weight change,[3]; Relative humidity 40% at 25°C,0.4%
same,1st adsorption Percentage of weight change,[3]; Relative humidity 50% at 25°C,0.2%
same,2nd desorption Percentage of weight change,[3]; Relative humidity 50% at 25°C,0.2%
same,1st adsorption Percentage of weight change,[3]; Relative humidity 60% at 25°C,0.2%
same,2nd desorption Percentage of weight change,[3]; Relative humidity 60% at 25°C,0.2%
same,1st adsorption Percentage of weight change,[3]; Relative humidity 70% at 25°C,0.2%
same,2nd desorption Percentage of weight change,[3]; Relative humidity 70% at 25°C,0.2%
same,1st adsorption Percentage of weight change,[3]; Relative humidity 80% at 25°C,0.1%
same,2nd desorption Percentage of weight change,[3]; Relative humidity 80% at 25°C,0.0%
same,1st adsorption Percentage of weight change,[3]; Relative humidity 90% at 25°C,0.3%
same,2nd desorption Percentage of weight change,[3]; Relative humidity 90% at 25°C,0.1%
same,1st adsorption Percentage of weight change,[3]; Relative humidity 95% at 25°C,0.1%
same,2nd desorption Percentage of weight change,[3]; Relative humidity 95% at 25°C,0.1%
same,XRPD after DVS testing,[3]; after DVS cycle 40-0-95-0-40%RH at 25°C,Crystal form F
same,Color,"[4]; 60°C, closed, 1 week",No change
same,Degradation (%),"[4]; 60°C, closed, 1 week",None
same,Purity (%),"[4]; 60°C, closed, 1 week",99.8%
same,Purity (%),[4]; Initial,99.8%
